Positions of bridges follow the written chain, without caps; N, C: chain ends. Non-standard residues stand in square brackets, D forms with d. Residues, ends and D or L forms follow the SMILES beside them. Groups on a side chain read outwards from the residue. *: point of attachment. DOTA = O=C(O)CN1CCN(CC(=O)O)CCN(CC(=O)*)CCN(CC(=O)O)CC1; 2Nal = N[C@@H](Cc1ccc2ccccc2c1)C(=O)O; Lys(iPr) = CC(C)NCCCC[C@H](N)C(=O)O
What was measured:
Type in all cases: in vivo
[1] = system: Z138 mantle cell lymphoma xenografts; experiment: Biodistribution in Z138 tumor-bearing mice; settings: Z138
Description: (§1) For Daudi, Z138, GRANTA519 and Jeko1 xenografts, male NOD.Cg-Rag1^tm1MomII2rg^tm1Wjl/SzJ (NRG) mice were subcutaneously inoculated on the left flank with 5×10^6 cells (100 μL; 1:1 ratio of PBS/Matrigel) and tumors were grown to a size of 200-500 mm^3. For PC-3 xenografts, male NOD.Cg-Rag1^tm1MomII2rg^tm1Wjl/SzJ (NRG) mice were subcutaneously inoculated on the left flank with 5×10^6 PC-3 cells (100 μL; 1:1 ratio of PBS/Matrigel) and tumors were grown to a size of 200-400 mm^3.
(§2) The mice were euthanized via CO2 inhalation while anesthetized with isoflurane. Tissues were harvested, washed in PBS, blotted dry, weighed, and measured on a Hidex AMG Automatic Gamma Counter.

[2] = Biodistribution in Z138 tumor-bearing mice; settings: male, NOD.Cg-Rag1^tm1MomII2rg^tm1Wjl/SzJ (NRG), mouse, iv, total radioactivity, Z138
Description: as §1, §2

[3] = Biodistribution in GRANTA519 tumor-bearing mice; settings: male, NOD.Cg-Rag1^tm1MomII2rg^tm1Wjl/SzJ (NRG), mouse, iv, total radioactivity, GRANTA519
Description: as §1, §2

[4] = system: GRANTA519 mantle cell lymphoma xenografts; experiment: Biodistribution in GRANTA519 tumor-bearing mice; settings: GRANTA519
Description: as §1, §2

[5] = 1 h blocked (7.5 μg LY2510924 i.p.)
[6] = adrenals, 1 h, read-out: Biodistribution Adrenals
[7] = adrenals, 1 h blocked (7.5 μg LY2510924 i.p.), read-out: Biodistribution Adrenals
[8] = bone, 1 h, read-out: Biodistribution Bone
[9] = bone, 1 h blocked (7.5 μg LY2510924 i.p.), read-out: Biodistribution Bone
[10] = brain, 1 h, read-out: Biodistribution Brain
[11] = brain, 1 h blocked (7.5 μg LY2510924 i.p.), read-out: Biodistribution Brain
[12] = fat, 1 h, read-out: Biodistribution Fat
[13] = fat, 1 h blocked (7.5 μg LY2510924 i.p.), read-out: Biodistribution Fat
[14] = heart, 1 h, read-out: Biodistribution Heart
[15] = heart, 1 h blocked (7.5 μg LY2510924 i.p.), read-out: Biodistribution Heart
[16] = intestine, 1 h, read-out: Biodistribution Intestine
[17] = intestine, 1 h blocked (7.5 μg LY2510924 i.p.), read-out: Biodistribution Intestine
[18] = kidney, 1 h, read-out: Biodistribution Kidney
[19] = kidney, 1 h blocked (7.5 μg LY2510924 i.p.), read-out: Biodistribution Kidney
[20] = liver, 1 h, read-out: Biodistribution Liver
[21] = liver, 1 h blocked (7.5 μg LY2510924 i.p.), read-out: Biodistribution Liver
[22] = lung, 1 h, read-out: Biodistribution Lung
[23] = lung, 1 h blocked (7.5 μg LY2510924 i.p.), read-out: Biodistribution Lung
[24] = muscle, 1 h, read-out: Biodistribution Muscle
[25] = muscle, 1 h blocked (7.5 μg LY2510924 i.p.), read-out: Biodistribution Muscle
[26] = pancreas, 1 h, read-out: Biodistribution Pancreas
[27] = pancreas, 1 h blocked (7.5 μg LY2510924 i.p.), read-out: Biodistribution Pancreas
[28] = spleen, 1 h, read-out: Biodistribution Spleen
[29] = spleen, 1 h blocked (7.5 μg LY2510924 i.p.), read-out: Biodistribution Spleen
[30] = stomach, 1 h, read-out: Biodistribution Stomach
[31] = stomach, 1 h blocked (7.5 μg LY2510924 i.p.), read-out: Biodistribution Stomach
[32] = testes, 1 h, read-out: Biodistribution Testes
[33] = testes, 1 h blocked (7.5 μg LY2510924 i.p.), read-out: Biodistribution Testes

## CC(C)NCCCC[C@@H]1NC(=O)[C@H](Cc2ccc(O)cc2)NC(=O)[C@H](Cc2ccccc2)NC(=O)CC[C@H](C(=O)N[C@@H](CCCCNC(C)C)C(=O)N[C@@H](CCCCNC(=O)[C@H](CCC(=O)O)NC(=O)[C@H](CCC(=O)O)NC(=O)[C@H](CCC(=O)O)NC(=O)CN2CCN(CC(=O)O)CCN(CC(=O)O)CCN(CC(=O)O)CC2)C(N)=O)NC(=O)CNC(=O)[C@H](Cc2ccc3ccccc3c2)NC(=O)[C@@H](CCCNC(=N)N)NC1=O [[^68Ga]Ga-BL02, metal not drawn] (FY[Lys(iPr)][dR][2Nal]G[dE][Lys(iPr)]K([Glu-Glu-Glu-DOTA])-NH2; lactam N-7)
[1]; 1 h
  Ratio Tumor: Blood: 43.12
  Ratio Tumor: Bone: 163.06
  Ratio Tumor: Liver: 26.89
  Ratio Tumor: Lung: 26.39
  Ratio Tumor: Muscle: 240.96
  Ratio Tumor: Spleen: 39.22
[1]; [5]
  Ratio Tumor: Blood: 3.94
  Ratio Tumor: Bone: 19.08
  Ratio Tumor: Liver: 5.23
  Ratio Tumor: Lung: 3.65
  Ratio Tumor: Muscle: 21.59
  Ratio Tumor: Spleen: 7.40
[2]; Z138 tumor, 1 h, read-out: Biodistribution Z138 (tumor)
  tissue uptake at 1 h: 12.9 %ID/g
[2]; Z138 tumor, 1 h blocked (7.5 μg LY2510924 i.p.), read-out: Biodistribution Z138 (tumor)
  tissue uptake at 1 h: 2.86 %ID/g
[2]; [6]
  tissue uptake at 1 h: 0.14 %ID/g
[2]; [7]
  tissue uptake at 1 h: 0.59 %ID/g
[2]; blood, 1 h, read-out: Biodistribution Blood
  tissue uptake at 1 h: 0.3 %ID/g
[2]; blood, 1 h blocked (7.5 μg LY2510924 i.p.), read-out: Biodistribution Blood
  tissue uptake at 1 h: 0.83 %ID/g
[2]; [8]
  tissue uptake at 1 h: 0.08 %ID/g
[2]; [9]
  tissue uptake at 1 h: 0.2 %ID/g
[2]; [10]
  tissue uptake at 1 h: 0.01 %ID/g
[2]; [11]
  tissue uptake at 1 h: 0.02 %ID/g
[2]; [12]
  tissue uptake at 1 h: 0.04 %ID/g
[2]; [13]
  tissue uptake at 1 h: 0.14 %ID/g
[2]; [14]
  tissue uptake at 1 h: 0.11 %ID/g
[2]; [15]
  tissue uptake at 1 h: 0.24 %ID/g
[2]; [16]
  tissue uptake at 1 h: 0.19 %ID/g
[2]; [17]
  tissue uptake at 1 h: 0.61 %ID/g
[2]; [18]
  tissue uptake at 1 h: 3.48 %ID/g
[2]; [19]
  tissue uptake at 1 h: 7.86 %ID/g
[2]; [20]
  tissue uptake at 1 h: 0.48 %ID/g
[2]; [21]
  tissue uptake at 1 h: 0.55 %ID/g
[2]; [22]
  tissue uptake at 1 h: 0.5 %ID/g
[2]; [23]
  tissue uptake at 1 h: 0.85 %ID/g
[2]; [24]
  tissue uptake at 1 h: 0.05 %ID/g
[2]; [25]
  tissue uptake at 1 h: 0.15 %ID/g
[2]; [26]
  tissue uptake at 1 h: 0.08 %ID/g
[2]; [27]
  tissue uptake at 1 h: 0.21 %ID/g
[2]; [28]
  tissue uptake at 1 h: 0.33 %ID/g
[2]; [29]
  tissue uptake at 1 h: 0.43 %ID/g
[2]; [30]
  tissue uptake at 1 h: 0.07 %ID/g
[2]; [31]
  tissue uptake at 1 h: 0.16 %ID/g
[2]; [32]
  tissue uptake at 1 h: 0.11 %ID/g
[2]; [33]
  tissue uptake at 1 h: 0.26 %ID/g
[3]; [6]
  tissue uptake at 1 h: 3.48 %ID/g
[3]; [7]
  tissue uptake at 1 h: 7.4 %ID/g
[3]; [8]
  tissue uptake at 1 h: 0.16 %ID/g
[3]; [9]
  tissue uptake at 1 h: 0.25 %ID/g
[3]; [10]
  tissue uptake at 1 h: 0.01 %ID/g
[3]; [11]
  tissue uptake at 1 h: 0.02 %ID/g
[3]; [12]
  tissue uptake at 1 h: 0.05 %ID/g
[3]; [13]
  tissue uptake at 1 h: 0.1 %ID/g
[3]; [14]
  tissue uptake at 1 h: 0.49 %ID/g
[3]; [15]
  tissue uptake at 1 h: 0.53 %ID/g
[3]; [16]
  tissue uptake at 1 h: 0.22 %ID/g
[3]; [17]
  tissue uptake at 1 h: 0.46 %ID/g
[3]; [18]
  tissue uptake at 1 h: 0.62 %ID/g
[3]; [19]
  tissue uptake at 1 h: 0.81 %ID/g
[3]; [20]
  tissue uptake at 1 h: 0.09 %ID/g
[3]; [21]
  tissue uptake at 1 h: 0.19 %ID/g
[3]; [22]
  tissue uptake at 1 h: 0.12 %ID/g
[3]; [23]
  tissue uptake at 1 h: 0.25 %ID/g
[3]; [24]
  tissue uptake at 1 h: 0.07 %ID/g
[3]; [25]
  tissue uptake at 1 h: 0.14 %ID/g
[3]; [26]
  tissue uptake at 1 h: 0.2 %ID/g
[3]; [27]
  tissue uptake at 1 h: 0.34 %ID/g
[3]; [28]
  tissue uptake at 1 h: 0.49 %ID/g
[3]; [29]
  tissue uptake at 1 h: 0.53 %ID/g
[3]; [30]
  tissue uptake at 1 h: 0.05 %ID/g
[3]; [31]
  tissue uptake at 1 h: 0.12 %ID/g
[3]; [32]
  tissue uptake at 1 h: 0.16 %ID/g
[3]; [33]
  tissue uptake at 1 h: 0.2 %ID/g
[3]; tumor (GRANTA519 xenograft), 1 h, read-out: Biodistribution GRANTA519 (tumor)
  tissue uptake at 1 h: 5.5 %ID/g
[3]; tumor (GRANTA519 xenograft), 1 h blocked (7.5 μg LY2510924 i.p.), read-out: Biodistribution GRANTA519 (tumor)
  tissue uptake at 1 h: 0.72 %ID/g
[3]; whole blood, 1 h, read-out: Biodistribution Blood
  tissue uptake at 1 h: 0.41 %ID/g
[3]; whole blood, 1 h blocked (7.5 μg LY2510924 i.p.), read-out: Biodistribution Blood
  tissue uptake at 1 h: 0.83 %ID/g
[4]; 1 h
  Ratio Tumor: Blood: 13.83
  Ratio Tumor: Bone: 45.39
  Ratio Tumor: Liver: 11.28
  Ratio Tumor: Lung: 9.12
  Ratio Tumor: Muscle: 83.17
  Ratio Tumor: Spleen: 15.86
[4]; [5]
  Ratio Tumor: Blood: 0.94
  Ratio Tumor: Bone: 4.27
  Ratio Tumor: Liver: 1.37
  Ratio Tumor: Lung: 0.96
  Ratio Tumor: Muscle: 5.36
  Ratio Tumor: Spleen: 1.78

— patent publication US20220218852A1, “NOVEL RADIOLABELLED CXCR4-TARGETING COMPOUNDS FOR DIAGNOSIS AND THERAPY” (PROVINCIAL HEALTH SERVICES AUTHORITY, priority 2019, published 2022)
